Data reported in US6369109B1, “Betulinic acid and derivatives thereof useful for the treatment of neuroectodermal tumor” (Deutsches Krebsforschungszentrum Stiftung des Offentlichen …, priority 1998, dated 2002).
Entries after “also recorded” stand apart in the source; their conditions may differ. Residues, ends and D or L forms follow the SMILES beside them. *: point of attachment. Cbz = O=C(OCc1ccccc1)*; CH2F = FC*

Experiments:
[1] = system: mitochondria isolated from SHEP cells; experiment: Cytochrome c release from isolated mitochondria (Western blot); type: biochemical, human; conditions: bongkrekic acid; FIG. 10C
Description: Cells were lysed for 30 min at 4° C. in PBS with 0.5% Triton X (Serva, Heidelberg, Germany) and 1 mM PMSF (Sigma, Deisenhofen, Germany) followed by high-speed centrifugation. Membrane proteins were eluted in buffer containing 0.1 M glycine, pH 3.0 and 1.5 M Tris, pH 8.8. Protein concentration was assayed using bicinchoninic acid (Pierce, Rockford, Ill.). 40 μg protein per lane was separated by 12% or 15% SDS-PAGE and electro blotted onto nitrocellulose (Amersharn, Braunschweig, Germany). Equal protein loading was controlled by Ponceau red staining of membranes. After blocking for 1 h in PBS supplemented with 2% BSA (Sigma) and 0.1% Tween 20 (Sigma), immunodetection of caspases-3 and -8, PARP, and cytochrome c protein was done using mouse anti-caspase-8 mAb C15 (Scaffidi et al., 1997, J. Biol. Chem. 272, 26953-26958, 1:5 dilution of hybridoma supernatant), mouse anti-caspase-3-specific mAb (1:1000, Transduction Laboratories, Lexington, Ky.), rabbit anti-PARP polyclonal antibody (1:10000, Enzyme Systems Products) or mouse anti-cytochrome c mAb (1:5000, PharMingen, San Diego, Calif.). Goat anti-mouse IgG or goat anti-rabbit IgG (1:5000, Santa Cruz Biotechnology) followed by ECL (Amersham) was used for detection.
Mitochondria isolated from SHEP cells transfected with bcl-2, Bcl-XL or a neontycin resistance vector only (Neo) were treated with 10 μg/ml betulinic acid. […]

[2] = system: FLICE, CPP32 and PARP in SH-EP neuroblastoma cells; experiment: Western blot of FLICE (caspase-8), CPP32 (caspase-3) and PARP cleavage; type: cell-based, human
Description: (§1) Cells were lysed for 30 min at 4° C. in PBS with 0.5% Triton X (Serva, Heidelberg, Germany) and 1 mM phenylmethylsulfonyl fluoride (Sigma, Deisenhofen, Germany) followed by high-speed centrifugation. Membrane proteins were eluted in buffer containing 0.1 M glycine. PH 3.0 and 1.5 M Tris, pH 8.8. Protein concentration was assayed using bicinchoninic acid (Pierce Chemical Co., Rockford, Ill.). Forty μg of protein per lane were separated by 12% SDS-PAGE and electroblotted onto nitrocellulose (Amersham, Braunschweig, Germany). Equal protein loading was controlled by Ponceau red staining of membranes. After blocking for 1 h in PBS supplemented with 2% BSA (Sigma) and 0.1% Tween 20 (Sigma), immunodetection of FLICE, CPP32, PARP, Bax, Bcl-x, Bcl-2, and p53 protein was done using mouse anti-FLICE monoclonal antibody C15 (1:5 dilution of hybridoma supernatant), mouse anti-CPP32 monoclonal antibody (1:1000, Transduction Laboratories, Lexington, KY), rabbit anti-PARP polyclonal antibody (1:10000, Enzyme Systems Products), rabbit anti-Bax polyclonal antibody (1:500, Calbiochem, Bad Soden, Germany), rabbit anti-Bcl-x polyclonal antibody (1:1000, Santa Cruz Biotechnology, Santa Cruz, Calif.), mouse anti-p53 monoclonal antibody (1:10000, Transduction Laboratories), and goat anti-mouse 1gG or goat antirabbit IgG (1:5000, Santa Cruz Biotechnology), ECL (Amersham) was used for detection.
FIG. 2B and FIG. 2C show the cleavage of FLICE, CPP32 and PARP. SH-EP neuroblastoma cells were treated with 10 μg/ml betulinic acid for indicated times or with 0.5 μg/ml doxorubicin for 24 h. Forty μg of protein per lane, isolated from cell lysates, were separated by 12% SDS-PAGE, Immunodetection of FLICE (FIG. 2B). CPP32 (FIG. 2C), and PARP (C) proteins was performed by mouse anti-FLICE monoclonal antibody, mouse anti-CPP32 monoclonal antibody, or rabbit anti-PARP polyclonal antibody and ECL.
SH-EP neuroblastoma cells were treated with 10 μg/ml betulinic acid for 24 h with or without 60 μM zVAD-frnk. Western blot analysis for FLICE and PARP cleavage was performed as described for FIG. 2B.
Cells were lysed for 30 mm at 4° C. in PBS with 0.5% Triton X (Serva, Heidelberg, Germany) and 1 mM PMSF (Sigma, Deisenhofen, Germany) followed by high-speed centrifugation. Membrane proteins were eluted in buffer containing 0.1 M glycine, pH 3.0 and 1.5 M Tris, pH 8.8. Protein concentration was assayed using bicinchoninic acid (Pierce, Rockford, Ill.). 40 μg protein per lane was separated by 12% or 15% SDS-PAGE and electroblotted onto nitrocellulose (Amersham, Braunschweig, Germany). Equal protein loading was controlled by Ponceau red staining of membranes. […]
For determination of mitochondrial membrane potential, cells (5×10^5/ml) were incubated with 3,3′-dihexyloxacarbocyanide iodide (DiOC6(3), 40 nM, Molecular Probes, Inc., Eugene, Oreg.) for 15 min at 37° C. and analyzed on a flow cytometer (FACScan) (Zamzarni et al., 1996 J. Exp. Med. 183:1533-44). […]

[3] = system: p53 protein in SH-EP neuroblastoma cells; experiment: Western blot of p53 accumulation; type: cell-based, human; conditions: 10 μg/ml betulinic acid; 0.5 μg/ml doxorubicin 12 h; FIG. 5D
Description: as §1, with “detection. […]” for “detection.”

[4] = 0.5 μg/ml Doxo or 10 μg/ml Bet A, 24 h, FIG. 14A

CO[C@H](C/C=C\C=C\CC/C=C/C[C@H](C)/C=C/C(=C\C(=O)O)CC(=O)O)/C(C)=C\C=C(/C)C(=O)O [bongkrekic acid]
effect of inhibitor on betulinic acid-driven release of cytochrome c [1]: blocked

COC(=O)C[C@H](NC(=O)[C@H](C)NC(=O)[C@@H](NC(=O)OCc1ccccc1)C(C)C)C(=O)CF [zVAD-fmk, benzyloxycarbonyl-Val-Ala-Asp-Fluoromethylketone] (Cbz-Val-Ala-Asp(OMe)-CH2F)
effect of inhibitor on betulinic acid-induced cleavage of FLICE and PARP ([2]; 60 μM zVAD-fmk, 10 μg/ml betulinic acid 24 h, FIG. 2E): inhibited cleavage of FLICE and PARP

COc1cccc2c1C(=O)c1c(O)c3c(c(O)c1C2=O)C[C@@](O)(C(=O)CO)C[C@@H]3O[C@H]1C[C@H](N)[C@H](O)[C@H](C)O1 [doxorubicin]
accumulation of p53 protein [3]: induces the accumulation of p53 protein; also recorded: strongly increased
caspase-3 (and PARP) processing in Bcl-2 or Bcl-XL overexpressing cells [2, 4]: inhibited in Bcl-2 and Bcl-XL transfected cells
caspase-8 processing in Bcl-2 or Bcl-XL overexpressing cells [2, 4]: cleaved into p43 and p41 intermediates and the active p18 subunit, regardless of Bcl-2 or Bcl-XL overexpression
caspase cleavage in cells sorted into ΔΨm^high and ΔΨm^low ([2]; 0.5 μg/ml Doxorubicin or 10 μg/ml Bet A, 18 h, FIG. 14B-2): CD95-L induction and cleavage of caspase-8 was found in both ΔΨm^high and ΔΨm^low cells
cleavage of FLICE ([2]; 10 μg/ml betulinic acid, 0.5 μg/ml doxorubicin 24 h, FIG. 2B): stimulated FLICE cleavage
